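Compound exposure: 48 hours, 5 concentrations, 96-well plates. At the GI50, growth is halved.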 The source made the active and inactive calls. Cut-off read from the data, not from the text of the source: active = GI50 up to about 1.1 µM and inactive = higher.
Assays:
Assay in all cases: growth of human tumour cells (NCI), 48 h
OVCAR-3 = tested on: OVCAR-3
A549 = tested on: A549
UO-31 = tested on: UO-31
SK-MEL-28 = tested on: SK-MEL-28
HCC 2998 = tested on: HCC 2998
ACHN = tested on: ACHN
IGROV-1 = tested on: IGROV-1
Malme-3M = tested on: Malme-3M
K562 = tested on: K562
Hs-578T = tested on: Hs-578T
BT-549 = tested on: BT-549
SN12C = tested on: SN12C
NCI-H460 = tested on: NCI-H460
MDA-N = tested on: MDA-N
RPMI-8226 = tested on: RPMI-8226
SR = tested on: SR
HCT-15 = tested on: HCT-15
MCF7 = tested on: MCF7
TK-10 = tested on: TK-10
HT-29 = tested on: HT-29
UACC-257 = tested on: UACC-257
T47D = tested on: T47D
SF-295 = tested on: SF-295
HOP-62 = tested on: HOP-62
U-251 = tested on: U-251
HCT-116 = tested on: HCT-116
OVCAR-8 = tested on: OVCAR-8
LOX IMVI = tested on: LOX IMVI
SK-MEL-5 = tested on: SK-MEL-5
786-0 = tested on: 786-0
CCRF-CEM = tested on: CCRF-CEM
RXF 393 = tested on: RXF 393
MDA-MB-231 = tested on: MDA-MB-231
SF-268 = tested on: SF-268
M14 = tested on: M14
SNB-75 = tested on: SNB-75
MOLT-4 = tested on: MOLT-4
SNB-19 = tested on: SNB-19
SW-620 = tested on: SW-620
NCI/ADR-RES = tested on: NCI/ADR-RES
UACC-62 = tested on: UACC-62
SK-OV-3 = tested on: SK-OV-3
KM12 = tested on: KM12
SF-539 = tested on: SF-539
CAKI-1 = tested on: CAKI-1
NCI-H23 = tested on: NCI-H23
HOP-92 = tested on: HOP-92
OVCAR-5 = tested on: OVCAR-5
PC-3 = tested on: PC-3
NCI-H522 = tested on: NCI-H522
OVCAR-4 = tested on: OVCAR-4
MDA-MB-435 = tested on: MDA-MB-435
COLO 205 = tested on: COLO 205
NCI-H226 = tested on: NCI-H226
EKVX = tested on: EKVX
A498 = tested on: A498
HL-60 = tested on: HL-60
DU-145 = tested on: DU-145
SK-MEL-2 = tested on: SK-MEL-2

Structure (SMILES): CC(/C=N/N=C1NCCCN1)=N\N=C1NCCCN1
- GI50 (OVCAR-3): > 100 µM (inactive)
- GI50 (A549): > 100 µM (inactive)
- GI50 (UO-31): > 100 µM (inactive)
- GI50 (SK-MEL-28): > 100 µM (inactive)
- GI50 (HCC 2998): > 100 µM (inactive)
- GI50 (ACHN): > 100 µM (inactive)
- GI50 (IGROV-1): > 100 µM (inactive)
- GI50 (Malme-3M): > 100 µM (inactive)
- GI50 (K562): > 100 µM (inactive)
- GI50 (Hs-578T): > 100 µM (inactive)
- GI50 (BT-549): > 100 µM (inactive)
- GI50 (SN12C): > 100 µM (inactive)
- GI50 (NCI-H460): > 100 µM (inactive)
- GI50 (MDA-N): > 100 µM (inactive)
- GI50 (RPMI-8226): > 100 µM (inactive)
- GI50 (SR): > 100 µM (inactive)
- GI50 (HCT-15): > 100 µM
- GI50 (MCF7): > 100 µM (inactive)
- GI50 (TK-10): > 100 µM (inactive)
- GI50 (HT-29): > 100 µM (inactive)
- GI50 (UACC-257): > 100 µM (inactive)
- GI50 (T47D): > 100 µM (inactive)
- GI50 (SF-295): > 100 µM (inactive)
- GI50 (HOP-62): > 100 µM (inactive)
- GI50 (U-251): > 100 µM (inactive)
- GI50 (HCT-116): > 100 µM (inactive)
- GI50 (OVCAR-8): > 100 µM (inactive)
- GI50 (LOX IMVI): > 100 µM (inactive)
- GI50 (SK-MEL-5): > 100 µM (inactive)
- GI50 (786-0): > 100 µM (inactive)
- GI50 (CCRF-CEM): > 100 µM (inactive)
- GI50 (RXF 393): > 100 µM (inactive)
- GI50 (MDA-MB-231): > 100 µM (inactive)
- GI50 (SF-268): > 100 µM (inactive)
- GI50 (M14): > 100 µM (inactive)
- GI50 (SNB-75): > 100 µM (inactive)
- GI50 (MOLT-4): > 100 µM (inactive)
- GI50 (SNB-19): > 100 µM (inactive)
- GI50 (SW-620): > 100 µM (inactive)
- GI50 (NCI/ADR-RES): > 100 µM (inactive)
- GI50 (UACC-62): > 100 µM (inactive)
- GI50 (SK-OV-3): > 100 µM (inactive)
- GI50 (KM12): > 100 µM (inactive)
- GI50 (SF-539): > 100 µM (inactive)
- GI50 (CAKI-1): > 100 µM (inactive)
- GI50 (NCI-H23): > 100 µM (inactive)
- GI50 (HOP-92): 40.2 µM (inactive)
- GI50 (OVCAR-5): > 100 µM (inactive)
- GI50 (PC-3): > 100 µM (inactive)
- GI50 (NCI-H522): > 100 µM (inactive)
- GI50 (OVCAR-4): > 100 µM (inactive)
- GI50 (MDA-MB-435): > 100 µM (inactive)
- GI50 (COLO 205): > 100 µM (inactive)
- GI50 (NCI-H226): > 100 µM (inactive)
- GI50 (EKVX): > 100 µM (inactive)

Structure (SMILES): O=C1C(Br)=C(C2=CC(=P(c3ccccc3)(c3ccccc3)c3ccccc3)C=C2)C(=O)C(Br)=C1C1=CC(=P(c2ccccc2)(c2ccccc2)c2ccccc2)C=C1
- GI50 (OVCAR-3): 40.2 µM (inactive)
- GI50 (A549): > 100 µM (inactive)
- GI50 (UO-31): > 100 µM (inactive)
- GI50 (SK-MEL-28): 41.8 µM (inactive)
- GI50 (ACHN): > 100 µM (inactive)
- GI50 (IGROV-1): 40.3 µM (inactive)
- GI50 (Malme-3M): 18.3 µM (inactive)
- GI50 (K562): > 100 µM (inactive)
- GI50 (Hs-578T): > 100 µM (inactive)
- GI50 (BT-549): > 100 µM (inactive)
- GI50 (SN12C): > 100 µM (inactive)
- GI50 (MDA-N): > 100 µM (inactive)
- GI50 (RPMI-8226): > 100 µM (inactive)
- GI50 (SR): > 100 µM (inactive)
- GI50 (MCF7): > 100 µM (inactive)
- GI50 (TK-10): 30.3 µM (inactive)
- GI50 (HT-29): > 100 µM (inactive)
- GI50 (UACC-257): 33.3 µM (inactive)
- GI50 (T47D): > 100 µM (inactive)
- GI50 (SF-295): > 100 µM (inactive)
- GI50 (HOP-62): > 100 µM (inactive)
- GI50 (U-251): 16.9 µM (inactive)
- GI50 (HCT-116): 99.1 µM (inactive)
- GI50 (OVCAR-8): > 100 µM (inactive)
- GI50 (A498): > 100 µM (inactive)
- GI50 (LOX IMVI): > 100 µM (inactive)
- GI50 (SK-MEL-5): > 100 µM (inactive)
- GI50 (786-0): 37.9 µM (inactive)
- GI50 (CCRF-CEM): > 100 µM (inactive)
- GI50 (RXF 393): > 100 µM (inactive)
- GI50 (MDA-MB-231): 42.1 µM (inactive)
- GI50 (SF-268): > 100 µM (inactive)
- GI50 (HL-60): > 100 µM (inactive)
- GI50 (M14): 12.6 µM (inactive)
- GI50 (SNB-75): > 100 µM (inactive)
- GI50 (MOLT-4): > 100 µM (inactive)
- GI50 (SNB-19): > 100 µM (inactive)
- GI50 (SW-620): 19.4 µM (inactive)
- GI50 (NCI/ADR-RES): > 100 µM (inactive)
- GI50 (UACC-62): > 100 µM (inactive)
- GI50 (DU-145): > 100 µM (inactive)
- GI50 (SK-OV-3): > 100 µM (inactive)
- GI50 (KM12): > 100 µM (inactive)
- GI50 (SF-539): > 100 µM (inactive)
- GI50 (CAKI-1): > 100 µM (inactive)
- GI50 (NCI-H23): > 100 µM (inactive)
- GI50 (HOP-92): 28.2 µM (inactive)
- GI50 (OVCAR-5): 17.9 µM (inactive)
- GI50 (PC-3): > 100 µM (inactive)
- GI50 (NCI-H522): 19.9 µM (inactive)
- GI50 (OVCAR-4): 76 µM (inactive)
- GI50 (SK-MEL-2): > 100 µM (inactive)
- GI50 (COLO 205): > 100 µM (inactive)
- GI50 (EKVX): 19.9 µM (inactive)

Reference: ChEMBL document CHEMBL1201862, “PubChem BioAssay data set” (2004)
